We go through 24 compounds from US10265307B2, “Thiazolecarboxamides and pyridinecarboxamide compounds useful as Pim kinase inhibitors” (Incyte Corporation, priority 2013, dated 2019).

Molecules are shown by their SMILES.

Holding throughout (format): biochemical
The target in one assay is Pim-3 (Homo sapiens (Human), UniProt Q86V86). As to the kind of experiment: Pim-3 kinase assay. The note with it: 1 mM ATP; read-out: Pim3 IC50. The protocol: Pim-1 and Pim-3 kinase assays-20 μL reactions were run in white 384 well polystyrene plates dotted with 0.8 μL compound/DMSO in the assay buffer (50 mM Tris, pH 7.5, 0.01% Tween-20, 5 mM MgCl2, 0.01% BSA, 5 mM DTT), containing 0.05 μM Biotin-labeled BAD peptide substrate (AnaSpec 62269), 1 mM ATP, and […] (Pim-1, Invitrogen PV3503) or […] (Pim-3, Millipore 14-738) enzyme for 1 h at 25° C. Reactions were stopped by addition of 10 μL STOP Buffer (150 mM Tris, pH=7.5, 150 mM NaCl, 75 mM EDTA, 0.01% Tween-20, 0.3% BSA) supplemented with Phospho-Bad (Ser112) Antibody (Cell Signaling 9291) diluted 666-fold, and Streptavidin donor beads (PerkinElmer 6760002) along with Protein-A acceptor beads (PerkinElmer 6760137) at 15 μg/mL each. Supplementation of the STOP buffer with beads and stopping the reactions were done under reduced light. Prior to the stopping reactions STOP buffer with beads was pre-incubated for 1 h in the dark at room temperature. After stopping the reactions, plates were incubated for 1 h in the dark at room temperature before reading on a PHERAstar FS plate reader (BMG Labtech) under reduced light.

The target of another assay is Pim-2 (Homo sapiens (Human), UniProt Q9P1W9). As to the kind of experiment: Pim-2 kinase assay. The note with it: 1 mM ATP; read-out: Pim2 IC50. The method, then: Pim-2 kinase assay-20 μL reactions were run in white 384 well polystyrene plates dotted with 0.8 μL compound/DMSO in the assay buffer (50 mM Tris, pH 7.5, 0.01% Tween-20, 5 mM MgCl2, 0.01% BSA, 5 mM DTT), containing 0.05 μM Fluorescein-labeled CREBtide peptide substrate (Invitrogen PV3508), 1 mM ATP, and 1 nM enzyme (Invitrogen PV3649) for 2 h at 25° C. Reactions were stopped by addition of 10 μL TR-FRET Dilution Buffer (Invitrogen PV3574) with 30 mM EDTA and 1.5 nM LanthaScreen Tb-CREB pSer133 antibody (Invitrogen PV3566). After 30 min. incubation at room temperature, plates were read on a PHERAstar FS plate reader (BMG Labtech).
Although the above in vitro assays are conducted at 1 mM ATP compounds can also be evaluated for potency and in vitro activity against PIM targets utilizing Km conditions, where the concentration of ATP is set to the Km value and the assay is more sensitive to PIM inhibition activity.

A further assay deals with Pim-1 (Homo sapiens (Human), UniProt P11309). As to the kind of experiment: Pim-1 kinase assay. To be noted: 1 mM ATP; read-out: Pim1 IC50. The method, then:
Supplementation of the STOP buffer with beads and stopping the reactions were done under reduced light. Prior to the stopping reactions STOP buffer with beads was pre-incubated for 1 h in the dark at room temperature. After stopping the reactions, plates were incubated for 1 h in the dark at room temperature before reading on a PHERAstar FS plate reader (BMG Labtech) under reduced light.

Sequence of Pim-1 (P11309 whole entry): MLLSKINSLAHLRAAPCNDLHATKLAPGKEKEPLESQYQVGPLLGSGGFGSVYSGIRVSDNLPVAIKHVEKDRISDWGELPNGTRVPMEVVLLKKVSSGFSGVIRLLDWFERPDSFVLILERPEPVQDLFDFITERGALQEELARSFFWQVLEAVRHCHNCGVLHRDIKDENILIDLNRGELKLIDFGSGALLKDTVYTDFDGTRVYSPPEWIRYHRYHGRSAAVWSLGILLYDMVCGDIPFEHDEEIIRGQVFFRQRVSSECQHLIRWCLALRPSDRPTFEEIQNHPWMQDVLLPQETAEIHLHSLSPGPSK
Sequence of Pim-2 (Q9P1W9 whole entry): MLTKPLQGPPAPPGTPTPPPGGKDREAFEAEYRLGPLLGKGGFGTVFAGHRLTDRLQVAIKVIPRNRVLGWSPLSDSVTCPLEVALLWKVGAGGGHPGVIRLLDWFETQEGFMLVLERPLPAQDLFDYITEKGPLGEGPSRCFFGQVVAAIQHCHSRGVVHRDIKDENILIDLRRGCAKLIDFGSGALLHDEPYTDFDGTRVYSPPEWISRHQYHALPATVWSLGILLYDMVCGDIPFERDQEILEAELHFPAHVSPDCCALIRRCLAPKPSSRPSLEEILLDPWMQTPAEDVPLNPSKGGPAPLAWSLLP

As for `C[C@H]1CN(c2c(NC(=O)c3nc(-c4c(F)cccc4F)sc3N)cnc3c2CCC3O)C[C@@H](N)[C@@H]1O` (single isomer, unassigned) [49 (Diastereoisomer 2)], the IC50 at Pim-3, at Pim-2 and on Pim-1 was at most 100 nM throughout.
Turning to `CCOc1cc(F)c(-c2nc(C(=O)Nc3cnc4c(c3N3C[C@@H](N)[C@H](O)[C@@H](C)C3)CCC4O)ccc2F)c(F)c1` (single isomer, unassigned) [51 (Diastereoisomer 1)], the IC50 at Pim-3, on Pim-2 and on Pim-1 was at most 100 nM throughout.
As for `CCOc1cc(F)c(-c2nc(C(=O)Nc3cnc4c(c3N3C[C@@H](N)[C@H](O)[C@@H](C)C3)CCC4O)ccc2F)c(F)c1` (single isomer, unassigned) [51 (Diastereoisomer 2)], the IC50 at Pim-3, at Pim-2 and on Pim-1 was at most 100 nM each time.
Consider `COc1ccc(F)c(-c2nc(C(=O)Nc3cnc4c(c3N3CCC[C@H](N)C3)CCC4O)c(N)s2)c1F` (single isomer, unassigned) [53 (Diastereoisomer 1)], for which the IC50 on Pim-3, on Pim-2 and at Pim-1 was at most 100 nM in each case.
In the case of `COc1ccc(F)c(-c2nc(C(=O)Nc3cnc4c(c3N3CCC[C@H](N)C3)CCC4O)c(N)s2)c1F` (single isomer, unassigned) [53 (Diastereoisomer 2)], the concentration for half-maximal inhibition (IC50) at Pim-3, at Pim-2 and at Pim-1 was at most 100 nM in each case.
Take `COc1ccc(F)c(-c2nc(C(=O)Nc3cnc4c(c3N3C[C@H](C)C[C@H](N)C3)CCC4O)c(N)s2)c1F` (single isomer, unassigned) [54 (Diastereoisomer 1)]: the 50% inhibitory concentration (IC50) on Pim-3, at Pim-2 and on Pim-1 was at most 100 nM each time.
With `COc1ccc(F)c(-c2nc(C(=O)Nc3cnc4c(c3N3C[C@H](C)C[C@H](N)C3)CCC4O)c(N)s2)c1F` (single isomer, unassigned) [54 (Diastereoisomer 2)], the IC50 at Pim-3, at Pim-2 and on Pim-1 was at most 100 nM throughout.
Turning to `COc1ccc(F)c(-c2nc(C(=O)Nc3cnc4c(c3N3CCC[C@H](N)C3)CCC4O)ccc2F)c1F` (single isomer, unassigned) [55 (Diastereoisomer 1)], the IC50 is at most 100 nM on Pim-3, 100 to 1000 nM at Pim-2 and at most 100 nM at Pim-1.
For the compound `COc1ccc(F)c(-c2nc(C(=O)Nc3cnc4c(c3N3CCC[C@H](N)C3)CCC4O)ccc2F)c1F` (single isomer, unassigned) [55 (Diastereoisomer 2)], the IC50 on Pim-3, at Pim-2 and at Pim-1 was at most 100 nM throughout.
As for `COc1ccc(F)c(-c2nc(C(=O)Nc3cnc4c(c3N3C[C@H](C)C[C@H](N)C3)CCC4O)ccc2F)c1F` (single isomer, unassigned) [56 (Diastereoisomer 1)], the IC50 on Pim-3, at Pim-2 and at Pim-1 was at most 100 nM throughout.
As to `COc1ccc(F)c(-c2nc(C(=O)Nc3cnc4c(c3N3C[C@H](C)C[C@H](N)C3)CCC4O)ccc2F)c1F` (single isomer, unassigned) [56 (Diastereoisomer 2)], the half-inhibitory concentration (IC50) on Pim-3, at Pim-2 and on Pim-1 was at most 100 nM in each case.
For the compound `CSc1cc(F)c(-c2nc(C(=O)Nc3cnc4c(c3N3CCC[C@H](N)C3)CCC4O)ccc2F)c(F)c1` (single isomer, unassigned) [58 (Diastereoisomer 1)], the IC50 is at most 100 nM at Pim-3, 100 to 1000 nM on Pim-2 and at most 100 nM on Pim-1.
On to `CSc1cc(F)c(-c2nc(C(=O)Nc3cnc4c(c3N3CCC[C@H](N)C3)CCC4O)ccc2F)c(F)c1` (single isomer, unassigned) [58 (Diastereoisomer 2)], for which the IC50 on Pim-3 was at most 100 nM; on Pim-2, 100 to 1000 nM; at Pim-1 it was at most 100 nM.
On to `C[S+]([O-])c1cc(F)c(-c2nc(C(=O)Nc3cnc4c(c3N3CCC[C@H](N)C3)CCC4O)ccc2F)c(F)c1` (single isomer, unassigned) [59 (Diastereoisomer 1)], for which the IC50 at Pim-3 was at most 100 nM; on Pim-2, 100 to 1000 nM; on Pim-1, at most 100 nM.
Consider `C[S+]([O-])c1cc(F)c(-c2nc(C(=O)Nc3cnc4c(c3N3CCC[C@H](N)C3)CCC4O)ccc2F)c(F)c1` (single isomer, unassigned) [59 (Diastereoisomer 2)], for which the figures for the IC50 on Pim-3, at Pim-2 and on Pim-1 were at most 100 nM, 100 to 1000 nM and at most 100 nM, respectively.
Consider `C[C@@H]1C[C@H](N)CN(c2c(NC(=O)c3ccc(F)c(-c4c(F)cc([S+](C)[O-])cc4F)n3)cnc3c2CCC3O)C1` (single isomer, unassigned) [60 (Diastereoisomer 1)], for which the concentration for half-maximal inhibition (IC50) on Pim-3 is at most 100 nM; at Pim-2, 100 to 1000 nM; at Pim-1 it was at most 100 nM.
Consider `C[C@@H]1C[C@H](N)CN(c2c(NC(=O)c3ccc(F)c(-c4c(F)cc([S+](C)[O-])cc4F)n3)cnc3c2CCC3O)C1` (single isomer, unassigned) [60 (Diastereoisomer 2)], for which the IC50 on Pim-3 is at most 100 nM; on Pim-2, 100 to 1000 nM; at Pim-1, at most 100 nM.
Consider `CS(=O)(=O)c1cc(F)c(-c2nc(C(=O)Nc3cnc4c(c3N3CCC[C@H](N)C3)CCC4O)ccc2F)c(F)c1` (single isomer, unassigned) [61 (Diastereoisomer 1)], for which the IC50 was above 40 nM at Pim-3, above 2000 nM on Pim-2 and at most 100 nM at Pim-1.
Turning to `CS(=O)(=O)c1cc(F)c(-c2nc(C(=O)Nc3cnc4c(c3N3CCC[C@H](N)C3)CCC4O)ccc2F)c(F)c1` (single isomer, unassigned) [61 (Diastereoisomer 2)], the IC50 was at most 100 nM on Pim-3, 100 to 1000 nM on Pim-2 and at most 100 nM at Pim-1.
Take `Nc1ncc(-c2c(F)cccc2F)nc1C(=O)Nc1cnc2c(c1N1CCC[C@H](N)C1)CCC2O` (single isomer, unassigned) [62 (Diastereoisomer 1)]: the figures for the IC50 at Pim-3, on Pim-2 and on Pim-1 were at most 100 nM, 100 to 1000 nM and at most 100 nM, respectively.
Consider `Nc1ncc(-c2c(F)cccc2F)nc1C(=O)Nc1cnc2c(c1N1CCC[C@H](N)C1)CCC2O` (single isomer, unassigned) [62 (Diastereoisomer 2)], for which the results for the IC50 at Pim-3, on Pim-2 and at Pim-1 were at most 100 nM, 100 to 1000 nM and at most 100 nM, respectively.
As for `C[C@H]1CN(c2c(NC(=O)c3ccc(F)c(-c4c(F)cccc4F)n3)cnc3c2CCC3O)C[C@@H](N)C1(C)O` (single isomer, unassigned) [63 (Diastereoisomer 1)], the IC50 on Pim-3, on Pim-2 and at Pim-1 was at most 100 nM each time.
`C[C@H]1CN(c2c(NC(=O)c3ccc(F)c(-c4c(F)cccc4F)n3)cnc3c2CCC3O)C[C@@H](N)C1(C)O` (single isomer, unassigned) [63 (Diastereoisomer 2)]: the concentration for half-maximal inhibition (IC50) at Pim-3, at Pim-2 and at Pim-1 was at most 100 nM throughout.
As for `C[C@H]1CN(c2c(NC(=O)c3ccc(F)c(-c4c(F)cccc4F)n3)cnc3c2CCC3O)C[C@@H](N)C1(C)O` (single isomer, unassigned) [63 (Diastereoisomer 3)], the 50% inhibitory concentration (IC50) on Pim-3, at Pim-2 and at Pim-1 was at most 100 nM throughout.

The IC50 is the concentration that inhibits the measured activity by half.
